From US9943560B2, “Medical compositions containing liquorice extracts with synergistic effect” (priority 2010, dated 2018) come the findings set out here.

Values after ≈ are worked out from the molar mass of the structure shown. Values joined by “and” are separate entries in the source; they are usually repeats but may differ in a detail not shown here. Identical values can stand only once.

In series [1] the test system is colon cancer cell strain colon38 transplanted tumor. Kind of series: Anti-tumor effect on colon38 transplanted tumor in mice. It counts as in vivo. To be noted: for Death number: dead animals of 10 per group, represents side effects; for Death number / Average weight of tumor / Tumor inhibiting rate: dose as in Table VI; for Average weight of tumor: mice, once a week, four times; for Average weight of tumor / Tumor inhibiting rate: after four weeks; for Tumor inhibiting rate: vs CK group. The source says:
Based on the method described in Pharmacology Research Methodology of Chinese Medicine (Chinese TCM Publishing House), test the anti-tumor effects of Chalcone A, G007, AG007-16 etc prepared in Embodiment 1, chemotherapy drugs (5-fluorouracil) and HBD09 on animal model of human cancer heterogeneity transplanted tumor. 5-fluorouracil (short for fu) is a broad-spectrum anti-tumor drug and mainly used to cure digestive tract tumor; the common adverse reactions are sicchasia, anorexia or vomiting, abdominal discomfort or diarrhea.
The dose given is as shown in Table VI; intragastric administration/ or injection administration is given once a week and four times in total.

The next series relates to SGC-7901 cells. Briefly: In vitro killing of SGC-7901 cells (MTS, 72 h). To be noted: SGC-7901, 72 h. The class given is cell-based, human. As to the method:
SGC-7901 cells i.e. human gastric cancer cells which are bought from Cell Bank of Chinese Academy of Sciences/Shanghai Institute of Life Sciences Cell Resource Center of Chinese Academy of Sciences are adherent cells.
(§1) 90% 1640 culture solution plus 10% newborn calf serum (NCS), 100 ml in total, and then add lml miscible liquids containing 1% penicillin and 1% streptomycin.
Cultivate it in an incubator of 37° C. with CO2 of 5 percent. The cells will passage once every 3 days, and carry out the experiment when the cells enter their logarithmic growth period after two or three times of passage.
3. Experiment on In Vitro Killing of MCF-7 Cell Source

The test system of a further series is MCF-7 cells. Briefly: In vitro killing of MCF-7 cells (MTS, 72 h). It counts as cell-based, human. As to conditions: MCF-7, 72 h. As to the method:
MCF-7 cells i.e. human breast cancer cells, which are bought from American ATCC, is a kind of adherent cells.
90% 1640 medium+10% fetal calf serum+30mmol/L Hepes+6 μg/ml insulin.
Its culture conditions and experimental procedures are all the same with that of the above method 1.

A further series concerns Colon38 cells. Briefly: In vitro killing of Colon38 cells (MTS, 72 h). It counts as cell-based, murine. To be noted: Colon38, 72 h. As to the method: 1. Experimental Sources of In Vitro Killing Colon38 Cells
Colon38 cells i.e. murine colon carcinoma cells, which was gifted from Dept. of Pharmacology, Yale Medical School and are a kind of adherent cells.
as §1
Cultivate it in an incubator of 37° C. with 5% CO2. The cells will passage every 3 days, and carry out the experiment when the cells enter their logarithmic growth period after two or three times of passage.
2. Experiment on In Vitro Killing of SGC-7901 Cell Source: […]

A further series has as its system PC-3 cells. Briefly: In vitro killing of PC-3 cells (MTS, 72 h). The class given is cell-based. As to conditions: PC-3, 72 h. The source says:
4. Experiment on In Vitro Killing of PC-3 Cell
PC-3 cells i.e. prostate cancer cells, which are bought from American ATCC, is a kind of adherent cells.
Its medium, culture conditions and experimental procedures are all the same with that of the above method 1.

Series [2] relates to postprandial blood glucose of Type 2 diabetics. Kind of series: Clinical observation: postprandial blood glucose control in high-blood-glucose patients. It counts as in vivo, human. The source says:
The postprandial blood glucose of Type 2 diabetics not sensitive to insulin is an important index of abnormal glucose metabolism and can be used to test the effect of drugs in reducing blood glucose.

In a further series the test system is Colon 38. Briefly: Drug combination on inhibiting tumor cells, Combination Index (Chou-Talalay), Colon 38. To be noted: partner drugs as named in the sentence (G007, I3C, DIM, Cis-platinum). The class given is cell-based, murine. The source says: According to the cells and experiment methods used in Embodiment 2, differences are incurred from that dose concentration is confirmed by the following methods: when two drugs are combined, the concentration of one drug is chosen to be approximate to but smaller than IC50 while the concentration of other drugs is chosen to be in gradient dilution, to perform a series of experiments. When it is experimented that 50% tumor cells are inhibited, then the concentration of all drugs used at that moment is recorded as their IC50 value, and the CI value of the two drugs can be calculated with the formula in the above document.

Take `O=c1[nH]cc(F)c(=O)[nH]1` [CK1(fu), 5-fluorouracil]: in series [1], the Death number is listed as 6, the “Average weight of tumor” value is 1.74 ± 0.11 g and the Tumor inhibiting rate was 43%.
For the compound `c1ccc2c(Cc3c[nH]c4ccccc34)c[nH]c2c1` [HBD09, bis-indolymethane], in series [1], the Death number is given as 2, the “Average weight of tumor” value amounted to 2.6 ± 0.15 g and the Tumor inhibiting rate was 15%. In the series with SGC-7901 cells, this compound came in with an IC50 of 18.2 µg/mL (≈ 73.9 µM) and an IC80 of 51.24 µg/mL (≈ 208 µM). In the series on MCF-7 cells, this compound showed an IC50 of 15.6 µg/mL (≈ 63.3 µM) and an 80% effect concentration (IC80) of 31.2 µg/mL (≈ 127 µM). In the series on Colon38 cells, this compound returned an IC50 of 18.59 µg/mL (≈ 75.5 µM) and a concentration for an effect of 80% (IC80) of 48.51 µg/mL (≈ 197 µM). Besides, in the series on PC-3 cells, the IC50 came to 13.8 µg/mL (≈ 56 µM) and the 80% effect concentration (IC80) turned out to be 23.9 µg/mL (≈ 97 µM).
For `N.N.[Cl][Pt][Cl]` [Cis-platinum], the 50% inhibitory concentration (IC50) with SGC-7901 cells was 5.4 µg/mL; in the series with MCF-7 cells, 3.92 µg/mL; in the series with Colon38 cells it was 3.92 µg/mL.
In the case of `C=CC(C)(C)c1cc(/C=C/C(=O)c2ccc(O)cc2)c(OC)cc1O` [Chalcone A], the “anti-tumor effect and side effects in the animal model” value in series [1] (alone or in combination with 5-fluorouracil) was “reduce the side effects brought by 5-fluorouracil dose”. For the same compound, in series [1], the Death number turned out to be 0, the “Average weight of tumor” value is given as 2.36 ± 0.13 g and the Tumor inhibiting rate is 23%. In addition, the “ratio of glucose reduction” value in series [2] (average after-meal glucose with vs without drug intake) is on record as 13.6%. Besides, the “Average blood glucose, drug intake, after meal” value in series [2] (average of three patients, two hours after meal) came to 11.4 mM/L. In addition, the “effect on controlling postprandial blood glucose” value in series [2] (high-blood-glucose patients, compared with soybean) was “significant effects”. Moreover, the “Blood glucose, drug intake, before meal” value in series [2] (individual patient, oral dose before meal) was 7.9 mM/L and 8.6 mM/L and 8.5 mM/L. For the same compound, the “Blood glucose, drug intake, after meal” value in series [2] (individual patient, two hours after 300 g boiled corn, oral dose before meal) is 10.6 mM/L and 12.0 mM/L and 11.6 mM/L. In the series on SGC-7901 cells, this compound came in with an IC50 of 9.7 µg/mL (≈ 28.7 µM) and an 80% effect concentration (IC80) of 29.70 µg/mL (≈ 87.8 µM). Moreover, in the series on MCF-7 cells, the IC50 turned out to be 9.1 µg/mL (≈ 26.9 µM) and the IC80 came out at 21.3 µg/mL (≈ 62.9 µM). Moreover, in the series with Colon38 cells, the IC50 is 9.1 µg/mL (≈ 26.9 µM) and the IC80 is 24.77 µg/mL (≈ 73.2 µM). Moreover, in the series on PC-3 cells, the IC50 was 7.8 µg/mL (≈ 23 µM) and the IC80 is 13.3 µg/mL (≈ 39.3 µM). Besides, the “synergistic effects in combination” value in the series with Colon 38 is given as “synergistic effects”.

As a reminder, the IC50 is the concentration needed to halve the response being measured. Low values mean higher potency, high ones lower potency. A word on the IC80: it is the point of the concentration-response curve where the effect stands at 80%.
